{
  "source": "patent US6344179B1",
  "about": "“Fluoralkenyl nortropanes” (Emory University, priority 1999, dated 2002)",
  "key": {"human DAT": {"target": "T1, human DAT (Homo sapiens, UniProt Q01959)", "T1 construct": "expressed in transfected cells", "T1 sequence (Q01959 whole entry)": "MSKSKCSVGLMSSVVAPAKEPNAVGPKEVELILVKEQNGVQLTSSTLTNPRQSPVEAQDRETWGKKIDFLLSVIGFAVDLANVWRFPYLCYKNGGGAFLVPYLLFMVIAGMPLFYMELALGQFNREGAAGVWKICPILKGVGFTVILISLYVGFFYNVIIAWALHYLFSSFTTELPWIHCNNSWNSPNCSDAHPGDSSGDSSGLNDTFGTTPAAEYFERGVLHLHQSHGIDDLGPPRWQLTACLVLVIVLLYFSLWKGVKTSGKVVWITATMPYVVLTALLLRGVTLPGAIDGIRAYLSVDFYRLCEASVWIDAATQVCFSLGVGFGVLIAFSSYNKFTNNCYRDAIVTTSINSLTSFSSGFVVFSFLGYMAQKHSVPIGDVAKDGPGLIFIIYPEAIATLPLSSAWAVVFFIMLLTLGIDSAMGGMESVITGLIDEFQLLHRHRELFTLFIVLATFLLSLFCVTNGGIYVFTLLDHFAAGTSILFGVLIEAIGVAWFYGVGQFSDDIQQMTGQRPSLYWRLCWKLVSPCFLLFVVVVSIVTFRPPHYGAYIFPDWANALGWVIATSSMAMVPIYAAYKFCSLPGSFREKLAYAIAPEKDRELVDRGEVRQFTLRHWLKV", "assay": "Competitive binding in transfected cell lines, [3H]WIN 35428"}, "[1]": {"target": "T2, norepinephrine transporter (Homo sapiens, UniProt P23975)", "T2 construct": "expressed in transfected cells", "T2 sequence (P23975 whole entry)": "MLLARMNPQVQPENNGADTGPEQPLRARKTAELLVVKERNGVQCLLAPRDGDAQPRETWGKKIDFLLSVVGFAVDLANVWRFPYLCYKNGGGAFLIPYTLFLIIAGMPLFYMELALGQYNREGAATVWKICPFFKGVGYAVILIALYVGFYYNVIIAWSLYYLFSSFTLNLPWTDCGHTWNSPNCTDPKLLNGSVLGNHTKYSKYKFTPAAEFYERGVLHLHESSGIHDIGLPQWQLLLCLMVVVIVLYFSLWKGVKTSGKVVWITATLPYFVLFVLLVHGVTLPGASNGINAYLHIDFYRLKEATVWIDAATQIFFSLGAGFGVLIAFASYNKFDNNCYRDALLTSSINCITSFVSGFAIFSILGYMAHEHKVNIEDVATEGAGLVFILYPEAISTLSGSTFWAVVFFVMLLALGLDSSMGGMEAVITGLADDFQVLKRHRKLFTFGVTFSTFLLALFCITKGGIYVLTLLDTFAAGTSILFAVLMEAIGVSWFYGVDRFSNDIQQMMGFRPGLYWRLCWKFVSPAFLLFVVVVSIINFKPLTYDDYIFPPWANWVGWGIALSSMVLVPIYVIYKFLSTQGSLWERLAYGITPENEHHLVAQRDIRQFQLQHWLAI", "assay": "Competitive binding in transfected cell lines, [3H]Nisoxetine"}, "human SERT": {"target": "T3, human SERT (Homo sapiens, UniProt P31645)", "T3 construct": "expressed in transfected cells", "T3 sequence (P31645 whole entry)": "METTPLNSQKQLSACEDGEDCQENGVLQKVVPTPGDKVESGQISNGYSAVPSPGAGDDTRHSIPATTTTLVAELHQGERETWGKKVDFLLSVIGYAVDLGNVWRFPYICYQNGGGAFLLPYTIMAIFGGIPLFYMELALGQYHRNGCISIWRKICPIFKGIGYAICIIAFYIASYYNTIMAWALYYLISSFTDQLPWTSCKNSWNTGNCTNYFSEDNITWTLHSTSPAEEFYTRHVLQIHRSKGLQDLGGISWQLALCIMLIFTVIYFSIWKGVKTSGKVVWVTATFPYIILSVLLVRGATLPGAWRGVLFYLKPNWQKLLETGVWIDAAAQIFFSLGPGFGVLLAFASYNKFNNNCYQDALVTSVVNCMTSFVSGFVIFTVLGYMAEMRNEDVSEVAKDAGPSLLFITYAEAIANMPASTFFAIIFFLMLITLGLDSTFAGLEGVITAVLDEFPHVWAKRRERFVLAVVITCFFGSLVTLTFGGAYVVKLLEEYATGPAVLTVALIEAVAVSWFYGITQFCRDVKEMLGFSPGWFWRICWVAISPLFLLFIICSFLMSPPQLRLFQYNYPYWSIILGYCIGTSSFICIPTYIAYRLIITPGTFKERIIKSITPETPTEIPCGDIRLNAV", "assay": "Competitive binding in transfected cell lines, [3H]Citalopram"}, "striatal DAT": {"test_system": "striatal DAT", "assay": "PET imaging in awake rhesus monkeys", "format": "in vivo, rhesus monkey", "description": "The regional kinetics of [^18F] […] Both [^18F] […] [^18F] […] The peak uptake ratio of striatumwcerebellum was 4:1 at 20 minutes for [^18F] […] 6d. The in vivo ratio of [1^18F] […] FECNT, 5:1. [^18F]"}, "[2]": {"assay": "In vivo regional brain tissue distribution of 18F-labeled ligands in rats", "set-up": "species or system Sprague Dawley rats", "details": "rat; for Regional uptake of radioactivity, Cerebellum / Regional uptake of radioactivity, Cortex (Cx) / Regional uptake of radioactivity, Striatum / S/Cereb (striatum to cerebellum ratio) / S/Cx (striatum to cortex ratio) / Uptake of radioactivity, Blood / Uptake of radioactivity, Brain: i.v., 18F-labeled", "description": "The in vivo regional brain tissue distribution of [^18F]"}, "rat brain DAT": {"target": "T4, rat brain DAT (Rattus norvegicus, UniProt P23977)", "T4 construct": "from tissue; host or cells: brain of living male Sprague Dawley rats (striatum, cortex, cerebellum dissected)", "T4 sequence (P23977 whole entry)": "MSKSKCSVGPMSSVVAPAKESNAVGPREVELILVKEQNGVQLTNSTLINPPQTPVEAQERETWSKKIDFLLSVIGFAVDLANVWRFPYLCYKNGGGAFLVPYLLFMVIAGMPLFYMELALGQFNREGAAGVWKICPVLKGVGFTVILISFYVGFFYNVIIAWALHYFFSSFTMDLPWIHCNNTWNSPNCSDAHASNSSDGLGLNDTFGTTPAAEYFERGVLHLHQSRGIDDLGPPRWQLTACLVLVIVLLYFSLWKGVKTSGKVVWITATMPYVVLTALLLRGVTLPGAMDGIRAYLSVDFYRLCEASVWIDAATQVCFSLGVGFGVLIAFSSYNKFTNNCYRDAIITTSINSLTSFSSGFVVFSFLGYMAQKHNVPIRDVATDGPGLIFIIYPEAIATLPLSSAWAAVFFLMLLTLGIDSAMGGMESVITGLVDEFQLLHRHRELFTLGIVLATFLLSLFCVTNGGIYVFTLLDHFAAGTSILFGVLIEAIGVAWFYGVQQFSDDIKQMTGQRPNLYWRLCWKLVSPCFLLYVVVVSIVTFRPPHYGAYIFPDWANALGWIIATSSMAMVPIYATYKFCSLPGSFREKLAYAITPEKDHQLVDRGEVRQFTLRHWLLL", "assay": "In vivo specificity: RTI-113 block before the 18F ligand in rats", "details": "for effect of RTI-113 on uptake in the striatum: RTI-113 5 mg/kg i.v. 15 minutes prior, 60 minutes", "description": "To determine the in vivo specificity of FBNT analogs [^18F] […] 6a, 6d and 6e. The rats were sacrificed 60 minutes after injection of [^18F] […] 6a, 6d and 6e, in the DAT transporter rich striatum."}, "[3]": {"details": "[3H]WIN 35428 as reference, cells transfected with human DAT, read-out: DAT, Ki"}, "[4]": {"details": "[3H]Nisoxetine, transfected cell lines, read-out: NET, Ki"}, "[5]": {"details": "[3H]Citalopram, cells transfected with human SERT, read-out: 5-HTT, Ki"}, "[6]": {"details": "at 60 minutes compared to 5 minutes post injection"}, "[7]": {"details": "at 120 minutes compared to 5 minutes post injection"}, "[8]": {"details": "60 min, 5 mg/kg RTI-113 i.v. 15 minutes prior"}},
  "note": "Several values for one entry are separate records, joined by “and”; a condition that tells them apart may be missing. Equal entries are not always repeated. Where two headings read alike, the source gives them in different places.",
  "data": [
    {"compound": "COC(=O)[C@H]1[C@@H](c2ccc(F)cc2)C[C@@H]2CC[C@H]1N2C/C=C/I", "note": "[Altropane, reference compound]", "values": [
      {"measurement": "Ki", "setting": "human DAT; [3]", "result": 0.78, "unit": "nM"},
      {"measurement": "Ki", "setting": "[1]; [4]", "result": "> 10000", "unit": "nM"},
      {"measurement": "Ki", "setting": "human SERT; [5]", "result": 55.4, "unit": "nM"}
    ]},
    {"compound": "COC(=O)[C@H]1[C@@H](c2ccc(Br)cc2)C[C@@H]2CC[C@H]1N2C/C=C/CF", "note": "[6b, N-((E)-4-=fluorobut-2-en-1-yl)-2β-carbomethoxy-3β-4-(4-bromophenyl)nortropane]", "values": [
      {"measurement": "Ki", "setting": "[1]", "result": 91, "unit": "nM"},
      {"measurement": "Ki", "setting": "human SERT", "result": 0.85, "unit": "nM"}
    ]},
    {"compound": "COC(=O)[C@H]1[C@@H](c2ccc(Cl)cc2)C[C@@H]2CC[C@H]1N2C/C=C\\CF", "note": "[6f, N-((Z)-4-fluorobut-2-en-1-yl)-2β-carbomethoxy-3β-(4-chlorophenyl) nortropane]", "values": [
      {"measurement": "initial uptake in striatum and cerebellum", "setting": "striatal DAT; awake rhesus monkeys", "result": "high initial uptake in the striatum and very little uptake in the cerebellum"}
    ]},
    {"compound": "COC(=O)[C@H]1[C@@H](c2ccc(Cl)cc2)C[C@@H]2CC[C@H]1N2C/C=C/I", "note": "[MMG/142, IPT, reference compound]", "values": [
      {"measurement": "Ki", "setting": "human DAT", "result": 1.16, "unit": "nM"},
      {"measurement": "Ki", "setting": "[1]", "result": 48.7, "unit": "nM"},
      {"measurement": "Ki", "setting": "human SERT", "result": 4.9, "unit": "nM"}
    ]},
    {"compound": "COC(=O)[C@H]1[C@@H](c2ccc(F)cc2)C[C@@H]2CC[C@H]1N2C/C=C/CF", "note": "[6e, N-((E)-4-fluorobut-2-en-1-yl)-2β-carbomethoxy-3β-(4-fluorophenyl)nortropane]", "values": [
      {"measurement": "Ki", "setting": "human DAT; [3]", "result": 1.7, "unit": "nM"},
      {"measurement": "clearance from striatal tissue", "setting": "[2]; [6]", "result": 70, "unit": "%"},
      {"measurement": "clearance from striatal tissue", "setting": "[2]; [7]", "result": 85, "unit": "%"},
      {"measurement": "effect of RTI-113 on uptake in the striatum", "setting": "rat brain DAT", "result": "significantly blocked"},
      {"measurement": "time at which transient equilibrium in the striatum was reached", "setting": "striatal DAT; awake rhesus monkey, post injection", "result": "30 min and 20 min"},
      {"measurement": "early transient equilibrium at the striatal DAT", "setting": "striatal DAT; awake rhesus monkeys, PET", "result": "achieved an early transient equilibrium"}
    ]},
    {"compound": "COC(=O)[C@H]1[C@@H](c2ccc(I)cc2)C[C@@H]2CC[C@H]1N2C/C=C/CF", "note": "[6c, N-((E)-4-fluorobut-2-en-1-yl)-2β-carbomethoxy-3β-(4-iodophenyl)nortropane]", "values": [
      {"measurement": "Ki", "setting": "human DAT", "result": 0.17, "unit": "nM"},
      {"measurement": "Ki", "setting": "human SERT", "result": 0.21, "unit": "nM"}
    ]},
    {"compound": "N-((E)-4-fluorobut-2-en-1-yl)-2β-carbomethoxy-3β-phenylnortropane [6a]", "values": [
      {"measurement": "selectivity for DAT over SERT", "setting": "human DAT; from binding in transfected cells", "result": 14, "unit": "times"},
      {"measurement": "selectivity for DAT", "setting": "human DAT; in vitro competitive binding", "result": "very high selectivity"},
      {"measurement": "Ki", "setting": "[1]; [4]", "result": "> 10000", "unit": "nM"},
      {"measurement": "Ki", "setting": "human SERT; [5]", "result": 102, "unit": "nM"},
      {"measurement": "clearance from striatal tissue", "setting": "[2]; [6]", "result": 75, "unit": "%"},
      {"measurement": "clearance from striatal tissue", "setting": "[2]; [7]", "result": 90, "unit": "%"},
      {"measurement": "Regional uptake of radioactivity, Cerebellum", "setting": "[2]; 5 min", "result": 0.55, "unit": "% dose/g"},
      {"measurement": "Regional uptake of radioactivity, Cortex (Cx)", "setting": "[2]; 5 min", "result": 0.84, "unit": "% dose/g"},
      {"measurement": "Regional uptake of radioactivity, Striatum", "setting": "[2]; 5 min", "result": 1.25, "unit": "% dose/g"},
      {"measurement": "S/Cereb (striatum to cerebellum ratio)", "setting": "[2]; 5 min", "result": 2.27},
      {"measurement": "S/Cx (striatum to cortex ratio)", "setting": "[2]; 5 min", "result": 1.49},
      {"measurement": "Uptake of radioactivity, Blood", "setting": "[2]; 5 min", "result": 0.22, "unit": "% dose/g"},
      {"measurement": "Uptake of radioactivity, Brain", "setting": "[2]; 5 min", "result": 0.58, "unit": "% dose/g"},
      {"measurement": "Regional uptake of radioactivity, Cerebellum", "setting": "[2]; 30 min", "result": 0.12, "unit": "% dose/g"},
      {"measurement": "Regional uptake of radioactivity, Cortex (Cx)", "setting": "[2]; 30 min", "result": 0.19, "unit": "% dose/g"},
      {"measurement": "Regional uptake of radioactivity, Striatum", "setting": "[2]; 30 min", "result": 0.36, "unit": "% dose/g"},
      {"measurement": "S/Cereb (striatum to cerebellum ratio)", "setting": "[2]; 30 min", "result": 3.0},
      {"measurement": "S/Cx (striatum to cortex ratio)", "setting": "[2]; 30 min", "result": 1.89},
      {"measurement": "Uptake of radioactivity, Blood", "setting": "[2]; 30 min", "result": 0.15, "unit": "% dose/g"},
      {"measurement": "Uptake of radioactivity, Brain", "setting": "[2]; 30 min", "result": 0.13, "unit": "% dose/g"},
      {"measurement": "Regional uptake of radioactivity, Cerebellum", "setting": "[2]; 60 min", "result": 0.09, "unit": "% dose/g"},
      {"measurement": "Regional uptake of radioactivity, Cortex (Cx)", "setting": "[2]; 60 min", "result": 0.13, "unit": "% dose/g"},
      {"measurement": "Regional uptake of radioactivity, Striatum", "setting": "[2]; 60 min", "result": 0.25, "unit": "% dose/g"},
      {"measurement": "S/Cereb (striatum to cerebellum ratio)", "setting": "[2]; 60 min", "result": 2.78},
      {"measurement": "S/Cx (striatum to cortex ratio)", "setting": "[2]; 60 min", "result": 1.92},
      {"measurement": "Uptake of radioactivity, Blood", "setting": "[2]; 60 min", "result": 0.11, "unit": "% dose/g"},
      {"measurement": "Uptake of radioactivity, Brain", "setting": "[2]; 60 min", "result": 0.09, "unit": "% dose/g"},
      {"measurement": "Regional uptake of radioactivity, Cerebellum", "setting": "[2]; 120 min", "result": 0.07, "unit": "% dose/g"},
      {"measurement": "Regional uptake of radioactivity, Cortex (Cx)", "setting": "[2]; 120 min", "result": 0.09, "unit": "% dose/g"},
      {"measurement": "Regional uptake of radioactivity, Striatum", "setting": "[2]; 120 min", "result": 0.13, "unit": "% dose/g"},
      {"measurement": "S/Cereb (striatum to cerebellum ratio)", "setting": "[2]; 120 min", "result": 1.86},
      {"measurement": "S/Cx (striatum to cortex ratio)", "setting": "[2]; 120 min", "result": 1.86},
      {"measurement": "Uptake of radioactivity, Blood", "setting": "[2]; 120 min", "result": 0.07, "unit": "% dose/g"},
      {"measurement": "Uptake of radioactivity, Brain", "setting": "[2]; 120 min", "result": 0.07, "unit": "% dose/g"},
      {"measurement": "Regional uptake of radioactivity, Cerebellum", "setting": "rat brain DAT; [8]", "result": 0.09, "unit": "% dose/g"},
      {"measurement": "Regional uptake of radioactivity, Cortex (Cx)", "setting": "rat brain DAT; [8]", "result": 0.10, "unit": "% dose/g"},
      {"measurement": "Regional uptake of radioactivity, Striatum", "setting": "rat brain DAT; [8]", "result": 0.11, "unit": "% dose/g"},
      {"measurement": "S/Cereb (striatum to cerebellum ratio)", "setting": "rat brain DAT; [8]", "result": 1.22},
      {"measurement": "S/Cx (striatum to cortex ratio)", "setting": "rat brain DAT; [8]", "result": 1.10},
      {"measurement": "Uptake of radioactivity, Blood", "setting": "rat brain DAT; [8]", "result": 0.12, "unit": "% dose/g"},
      {"measurement": "Uptake of radioactivity, Brain", "setting": "rat brain DAT; [8]", "result": 0.07, "unit": "% dose/g"},
      {"measurement": "effect of RTI-113 on uptake in the striatum", "setting": "rat brain DAT", "result": "significantly blocked"},
      {"measurement": "retention of radioactivity in the striatum", "setting": "striatal DAT; awake rhesus monkey, PET images", "result": "no visible retention of radioactivity in the striatum"}
    ]}
  ]
}
